The record followed here is patent US11149040B2, “Fused triazole agonists of the APJ receptor” (AMGEN INC., priority 2017, dated 2021).

Bounds are passed on as bounds.

For the test, the target named is human APJ receptor (Homo sapiens (Human), UniProt P35414). Description: [35S]GTPγS binding assay on membranes from CHO cells stably expressing human APJ receptor. In kind it is biochemical. The following applies: read-out: Activity hAPJ SPA EC50 IP. An outline of the steps: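 Membranes from CHO cells stably expressing FLAG-tagged human APJ; assay buffer GDP, MgCl2 and NaCl levels optimised beforehand. Incubation 90 min at RT, imager read-out. EC50 from non-linear regression on means of several independent experiments.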
Sequence of human APJ receptor (P35414 whole entry): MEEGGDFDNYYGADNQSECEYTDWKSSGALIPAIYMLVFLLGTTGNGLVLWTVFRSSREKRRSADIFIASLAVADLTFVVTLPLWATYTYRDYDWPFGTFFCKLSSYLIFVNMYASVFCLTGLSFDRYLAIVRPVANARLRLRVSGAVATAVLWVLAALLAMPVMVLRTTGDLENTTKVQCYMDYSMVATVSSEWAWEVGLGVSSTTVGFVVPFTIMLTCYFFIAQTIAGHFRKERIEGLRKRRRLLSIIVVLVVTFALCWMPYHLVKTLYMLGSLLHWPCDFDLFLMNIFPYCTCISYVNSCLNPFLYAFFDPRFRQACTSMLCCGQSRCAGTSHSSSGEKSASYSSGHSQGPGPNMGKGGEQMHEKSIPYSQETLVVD
(In general: Binding of GTPγS marks nucleotide exchange on a G protein.)
As for `COC[C@@H]1COc2c(OC)cccc2-c2nnc(NS(=O)(=O)[C@@H](C)[C@@H](OC(C)C)c3ncc(C)cn3)n21` (single isomer, unassigned) [Example 39.0, (1S,2S)-N-((5R)-8-methoxy-5-(methoxymethyl)-5,6-dihydro[1,2,4]traizolo[4,3-d][1,4]benzoxazepin-3-yl)-1-(5-methyl-2-pyrimidinyl)-1-(2-propanyloxy)-2-propanesulfonamide or (1S,2S)-N-((5S)-8-methoxy-5-(methoxymethyl)-5,6-dihydro[1,2,4]traizolo[4,3-d][1,4]benzoxazepin-3-yl)-1-(5-methyl-2-pyrimidinyl)-1-(2-propanyloxy)-2-propanesulfonamide], the EC50 (as a rule, the concentration giving half of the maximal effect) was 8 nM.

As to `COC[C@@H]1COc2ncccc2-c2nnc(NS(=O)(=O)[C@@H](C)[C@@H](OC(C)C)c3ncc(C)cn3)n21` (single isomer, unassigned) [Example 40.0], the 50% effective concentration (EC50) is 86 nM.

As to `COC[C@@H]1COc2ncccc2-c2nnc(NS(=O)(=O)[C@@H](C)[C@@H](OC(C)C)c3ncc(C)cn3)n21` (single isomer, unassigned) [Example 41.0, (1S,2S)-N-((5R)-5-(methoxymethyl)-5,6-dihydropyrido[3,2-f][1,2,4]triazolo[4,3-d][1,4]oxazepin-3-yl)-1-(5-methyl-2-pyrimidinyl)-1-(2-propanyloxy)-2-propanesulfonamide or (1S,2S)-N-((5S)-5-(methoxymethyl)-5,6-dihydropyrido[3,2-f][1,2,4]triazolo[4,3-d][1,4]oxazepin-3-yl)-1-(5-methyl-2-pyrimidinyl)-1-(2-propanyloxy)-2-propanesulfonamide], the EC50 is 44 nM.

Take `COC[C@@H]1COc2ncccc2-c2nnc(NS(=O)(=O)[C@@H](C)[C@@H](OC(C)C)c3ncc(Cl)cn3)n21` (single isomer, unassigned) [Example 44.0, (1S,2S)-1-(5-chloro-2-pyrimidinyl)-N-((5R)-5-(methoxymethyl)-5,6-dihydropyrido[3,2-f][1,2,4]triazolo[4,3-d][1,4]oxazepin-3-yl)-1-(2-propanyloxy)-2-propanesulfonamide or (1S,2S)-1-(5-chloro-2-pyrimidinyl)-N-((5S)-5-(methoxymethyl)-5,6-dihydropyrido[3,2-f][1,2,4]triazolo[4,3-d][1,4]oxazepin-3-yl)-1-(2-propanyloxy)-2-propanesulfonamide]: the EC50 stood at 15 nM.

With `COC[C@@H]1COc2ncccc2-c2nnc(NS(=O)(=O)[C@@H](C)[C@@H](OC(C)C)c3ncc(Cl)cn3)n21` (single isomer, unassigned) [Example 45.0, (1S,2S)-1-(5-chloro-2-pyrimidinyl)-N-((5R)-5-(methoxymethyl)-5,6-dihydropyrido[3,2-f][1,2,4]triazolo[4,3-d][1,4]oxazepin-3-yl)-1-(2-propanyloxy)-2-propanesulfonamide or (1S,2S)-1-(5-chloro-2-pyrimidinyl)-N-((5S)-5-(methoxymethyl)-5,6-dihydropyrido[3,2-f][1,2,4]triazolo[4,3-d][1,4]oxazepin-3-yl)-1-(2-propanyloxy)-2-propanesulfonamide], the EC50 turned out to be 160 nM.

Regarding `Cc1cnc([C@H](OC(C)C)[C@H](C)S(=O)(=O)Nc2nnc3n2-c2ccccc2/C=C\CC3)nc1` (single isomer, unassigned) [Example 47.0, (P) (1S,2S)-N-((Z)-4,5-dihydrobenzo[g][1,2,4]triazolo[4,3-a]azocin-1-yl)-1-isopropoxy-1-(5-methylpyrimidin-2-yl)propane-2-sulfonamide or (M) (1S,2S)-N-((Z)-4,5-dihydrobenzo[g][1,2,4]triazolo[4,3-a]azocin-1-yl)-1-isopropoxy-1-(5-methylpyrimidin-2-yl)propane-2-sulfonamide], the EC50 was more than 12500 nM.

For `Cc1cnc([C@H](OC(C)C)[C@H](C)S(=O)(=O)Nc2nnc3n2-c2c(F)cccc2/C=C\CC3)nc1` (single isomer, unassigned) [Example 48.0, (P)(1S,2S)-N-((Z)-11-Fluoro-4,5-dihydrobenzo[g][1,2,4]triazolo[4,3-a]azocin-1-yl)-1-isopropoxy-1-(5-methylpyrimidin-2-yl)propane-2-sulfonamide or (M)(1S,2S)-N-((Z)-11-fluoro-4,5-dihydrobenzo[g][1,2,4]triazolo[4,3-a]azocin-1-yl)-1-isopropoxy-1-(5-methylpyrimidin-2-yl)propane-2-sulfonamide], the 50% effective concentration (EC50) was more than 12500 nM.

Take `Cc1cnc([C@H](OC(C)C)[C@H](C)S(=O)(=O)Nc2nnc3n2-c2c(F)cccc2/C=C\C[C@@H]3C)nc1` (single isomer, unassigned) [Example 50.0]: the EC50 was 12 nM.

On to `Cc1cnc([C@H](OC(C)C)[C@H](C)S(=O)(=O)Nc2nnc3n2-c2c(F)cccc2/C=C\C[C@@H]3C)nc1` (single isomer, unassigned) [Example 51.0], for which the concentration giving a half-maximal response (EC50) is 8.6 nM.

In the case of `Cc1cnc([C@H](OC(C)C)[C@H](C)S(=O)(=O)Nc2nnc3n2-c2c(F)cccc2/C=C\C[C@@H]3C)nc1` (single isomer, unassigned) [Example 52.0], the concentration for a half-maximal effect (EC50) was more than 12500 nM.

Consider `Cc1cnc([C@H](OC(C)C)[C@H](C)S(=O)(=O)Nc2nnc3n2-c2c(F)cccc2/C=C\C[C@@H]3C)nc1` (single isomer, unassigned) [Example 53.0], for which the EC50 is 220 nM.

Regarding `CO[C@H](c1ncc(C)cn1)[C@H](C)S(=O)(=O)Nc1nnc2n1[C@H](COC(C)C)COc1ncccc1-2` (single isomer, unassigned) [Example 63.0, (1R,2S)-N-((R)-5-(isopropoxymethyl)-5,6-dihydropyrido[3,2-f][1,2,4]triazolo[4,3-d][1,4]oxazepin-3-yl)-1-methoxy-1-(5-methylpyrimidin-2-yl)propane-2-sulfonamide or (1R,2S)-N-((S)-5-(isopropoxymethyl)-5,6-dihydropyrido[3,2-f][1,2,4]triazolo[4,3-d][1,4]oxazepin-3-yl)-1-methoxy-1-(5-methylpyrimidin-2-yl)propane-2-sulfonamide], the concentration for a half-maximal effect (EC50) worked out at 800 nM.

With `CO[C@H](c1ncc(C)cn1)[C@H](C)S(=O)(=O)Nc1nnc2n1[C@H](COC(C)C)COc1ncccc1-2` (single isomer, unassigned) [Example 64.0, (1R,2S)-N-((R)-5-(isopropoxymethyl)-5,6-dihydropyrido[3,2-f][1,2,4]triazolo[4,3-d][1,4]oxazepin-3-yl)-1-methoxy-1-(5-methylpyrimidin-2-yl)propane-2-sulfonamide or (1R,2S)-N-((S)-5-(isopropoxymethyl)-5,6-dihydropyrido[3,2-f][1,2,4]triazolo[4,3-d][1,4]oxazepin-3-yl)-1-methoxy-1-(5-methylpyrimidin-2-yl)propane-2-sulfonamide], the 50% effective concentration (EC50) worked out at 640 nM.

For `COC[C@@H]1COc2cnccc2-c2nnc(NS(=O)(=O)[C@@H](C)[C@@H](OC(C)C)c3ncc(C)cn3)n21` (single isomer, unassigned) [Example 66.0, (1S,2S)-N-((5R)-5-(methoxymethyl)-5,6-dihydropyrido[4,3-f][1,2,4]triazolo[4,3-d][1,4]oxazepin-3-yl)-1-(5-methyl-2-pyrimidinyl)-1-(2-propanyloxy)-2-propanesulfonamide or (1S,2S)-N-((5S)-5-(methoxymethyl)-5,6-dihydropyrido[4,3-f][1,2,4]triazolo[4,3-d][1,4]oxazepin-3-yl)-1-(5-methyl-2-pyrimidinyl)-1-(2-propanyloxy)-2-propanesulfonamide], the EC50 worked out at 760 nM.

Take `COC[C@@H]1COc2ncccc2-c2nnc(NS(=O)(=O)[C@@H](C)[C@H](OC(C)C)c3ncc(C)cn3)n21` (single isomer, unassigned) [Example 67.0, (1R,2S)-N-((5R)-5-(methoxymethyl)-5,6-dihydropyrido[3,2-f][1,2,4]triazolo[4,3-d][1,4]oxazepin-3-yl)-1-(5-methyl-2-pyrimidinyl)-1-(2-propanyloxy)-2-propanesulfonamide or (1R,2S)-N-((5S)-5-(methoxymethyl)-5,6-dihydropyrido[3,2-f][1,2,4]triazolo[4,3-d][1,4]oxazepin-3-yl)-1-(5-methyl-2-pyrimidinyl)-1-(2-propanyloxy)-2-propanesulfonamide]: the concentration for a half-maximal effect (EC50) is 250 nM.

Turning to `COC[C@@H]1COc2ncccc2-c2nnc(NS(=O)(=O)[C@@H](C)[C@H](OC(C)C)c3ncc(C)cn3)n21` (single isomer, unassigned) [Example 68.0, (1R,2S)-N-((5R)-5-(methoxymethyl)-5,6-dihydropyrido[3,2-f][1,2,4]triazolo[4,3-d][1,4]oxazepin-3-yl)-1-(5-methyl-2-pyrimidinyl)-1-(2-propanyloxy)-2-propanesulfonamide or (1R,2S)-N-((5S)-5-(methoxymethyl)-5,6-dihydropyrido[3,2-f][1,2,4]triazolo[4,3-d][1,4]oxazepin-3-yl)-1-(5-methyl-2-pyrimidinyl)-1-(2-propanyloxy)-2-propanesulfonamide], the EC50 came to 3900 nM.

In the case of `COC[C@@H]1COc2cccnc2-c2nnc(NS(=O)(=O)[C@@H](C)[C@@H](OC(C)C)c3ncc(C)cn3)n21` (single isomer, unassigned) [Example 69.0, (1S,2S)-N-((5R)-5-(methoxymethyl)-5,6-dihydropyrido[2,3-f][1,2,4]triazolo[4,3-d][1,4]oxazepin-3-yl)-1-(5-methyl-2-pyrimidinyl)-1-(2-propanyloxy)-2-propanesulfonamide or (1S,2S)-N-((5S)-5-(methoxymethyl)-5,6-dihydropyrido[2,3-f][1,2,4]triazolo[4,3-d][1,4]oxazepin-3-yl)-1-(5-methyl-2-pyrimidinyl)-1-(2-propanyloxy)-2-propanesulfonamide], the EC50 turned out to be 230 nM.
